Test [1] has as its system GH3. The experiment in a line: Effect on K+ stimulated [Ca2+] influx in GH3 cells at 10e-7 concentration. In kind it is functional, Rattus norvegicus.
Test [2] concerns GH3. In words: Effect on K+ stimulated [Ca2+] influx in GH3 cells at 10e-5 concentration. In kind it is functional, Rattus norvegicus.
Test [3] has as its system GH3. In words: Maximal stimulation of Ca 2+ uptake was determined. In kind it is functional, Rattus norvegicus.
For test [4], the system named is GH3. In words: Effect on K+ stimulated [Ca2+] influx in GH3 cells at 10e-8 concentration. In kind it is functional, Rattus norvegicus.
Test [5] has as its system GH3. In words: Effect on K+ stimulated [Ca2+] influx in GH3 cells at 10e-6 concentration. In kind it is functional, Rattus norvegicus.
Test [6] relates to GH3. The experiment in a line: Concentration required for enhancing calcium influx into GH 3 cells was determined. In kind it is functional, cell-based. As to conditions: Rattus norvegicus.
Test [7] has as its system GH3. In words: Maximal stimulation of Ca 2+ uptake was determined; no significant effect. In kind it is functional, cell-based. As to conditions: Rattus norvegicus.
For test [8], the system named is GH3. The experiment in a line: Concentration required for 84% enhancing calcium influx intoGH 3 cells was determined. In kind it is functional, cell-based. Conditions: Rattus norvegicus.

Molecules are shown by their SMILES. Activity calls are given as the source filed them. No cut-off for these calls is given here.

As for `COC(=O)c1c(C)[nH]c(C)c1C(=O)c1ccccc1CCc1ccccc1`, the Increase with GH3 [1] is reported as 120%; in the test with GH3 [2], 350%; in the test with GH3 [4] it was 0%; in the test with GH3 [5] it was 340%. In the test with GH3 [3], the Stimulation is 420%. In addition, the concentration for a half-maximal effect (EC50) in the test on GH3 [6] worked out at 207 nM.
As to `COC(=O)c1c(C)[nH]c(C)c1C(=O)c1ccccc1-c1ccccc1`, the Increase in the test with GH3 [1] is listed as -8%; in the test with GH3 [2] it was 0%; in the test with GH3 [4], 0%; in the test on GH3 [5], -8%. The Stimulation result in the test on GH3 [7] was “inactive”.
As to `COC(=O)c1c(C)[nH]c(C)c1C(=O)c1ccccc1Cc1ccccc1`, the Increase with GH3 [1] came to 140%; with GH3 [2], 280%; in the test on GH3 [4] it was 20%; in the test with GH3 [5], 240%. The molecule further yielded a Stimulation in the test with GH3 [3] of 298%. Besides, in the test with GH3 [6], the EC50 was found to be 140 nM.
Consider `COC(=O)c1c(C)[nH]c(C)c1C(=O)c1ccccc1CCCc1ccccc1`, for which the Increase with GH3 [1] is listed as 0%; with GH3 [2] it was 220%; in the test with GH3 [4], -8%; with GH3 [5] it was 160%. The same molecule displayed a Stimulation in the test with GH3 [3] of 265%. Moreover, the EC50 with GH3 [6] came to 614 nM.
With `COC(=O)c1c(C)[nH]c(C)c1C(=O)c1ccccc1CCCCc1ccccc1`, the Increase with GH3 [1] turned out to be 20%; in the test with GH3 [2] it was 20%; with GH3 [4], 0%; with GH3 [5] it was 80%. For the same molecule, the EC50 in the test on GH3 [8] was determined as 10000 nM. Besides, the Stimulation result in the test with GH3 [7] was “inactive”.

Source of the values: ChEMBL document CHEMBL1128664, “FPL 64176: The effect of the chain length separating the two aryl groups on calcium agonist activity” (Bioorg Med Chem Lett, 1995).
